# Numbers after ± are expanded uncertainties.
# Settings: Crystal; visual observation
smiles,measurement,value
Nc1cccc(C(=O)O)c1 [3-aminobenzoic acid],Normal melting temperature,174.1 ± 1 °C

# Source: the NIST ThermoML archive (doi:10.1021/je4000845)
